In patent publication EP1660440B1, “ACYLOXYALKYL CARBAMATE PRODRUGS, METHODS OF SYNTHESIS AND USE” (priority 2003, dated 2005):
Read-outs that look alike come from different tables or passages of the source.

What was measured:
Pancreatin = Pancreatin stability; format: in vitro ADME, porcine; settings: 5 µM
Protocol: Pancreatin Stability: Stability studies were conducted by incubating prodrug (5 µM) with 1 % (w/v) pancreatin (Sigma, P-1625, from porcine pancreas) in 0.025 M Tris buffer containing 0.5 M NaCl (pH 7.5) at 37 °C for 60 min. The reaction was stopped by addition of 2 volumes of methanol. After centrifugation at 14,000 rpm for 10 min, the supernatant was removed and analyzed by LC/MS/MS.

[1] = rat, plasma, 2 µM
Protocol: (§1) The stabilities of prodrugs were evaluated in one or more in vitro systems using a variety of tissue preparations following methods known in the art. The chemical stability of prodrugs in aqueous buffers at pH's of 2.0, 7.4 and 8.0 were also measured. […] Each preparation was incubated with test compound at 37°C for one hour. Aliquots (50 µL) were removed at 0, 30, and 60 min and quenched with 0.1 % trifluoroacetic acid in acetonitrile.

Caco-2 cells = settings: human, Caco-2, 200 uM
Protocol: For example, cellular permeability may be evaluated by examining the flux of a prodrug across a cultured polarized cell monolayer (e.g., Caco-2 cells). Caco-2 cells obtained from continuous culture (passage less than 28) were seeded at high density onto Transwell polycarbonate filters. Cells were maintained with DMEM / 10% fetal calf serum + 0.1 mM nonessential amino acids + 2 mM L-Gln, 5% CO2/ / 95% O2, 37°C until the day of the experiment. Permeability studies were conducted at pH 6.5 apically (in 50 mM MES buffer containing 1 mM CaCl2, 1mM MgCl2, 150 mM NaCl, 3 mM KCl, 1 mM NaH2PO4, 5 mM glucose) and pH 7.4 basolaterally (in Hanks' balanced salt solution containing 10 mM HEPES) in the presence of efflux pump inhibitors (250 µM MK-571, 250 µM Verapamil, 1 mM Ofloxacin). Inserts were placed in 12 or 24 well plates containing buffer and incubated for 30 min at 37C°. Prodrug (200 µM) was added to the apical or basolateral compartment (donor) and concentrations of prodrug and/or released parent drug in the opposite compartment (receiver) were determined at intervals over 1 hour using LC/MS/MS. Values of apparent permeability (Papp) were calculated using the equation: Papp = Vr (dC/dt)//(ACo) [formula]
Here Vr is the volume of the receiver compartment in mL; dC/dt is the total flux ofprodrug and parent drug (µM/s), determined from the slope of the plot of concentration in the receiver compartment versus time; Co is the initial concentration of prodrug in µM; A is the surface area of the membrane in cm^2.

[2] = human, 2 µM
Protocol: as §1

[3] = human, s9, 1 h, 5 µM
Protocol: For stability studies, prodrug (5 µM) was incubated in Caco-2 homogenate S9 fraction (0.5 mg protein per mL) for 60 min at 37°C. Concentrations of intact prodrug and released baclofen were determined at zero time and 60 minutes using LC/MS/MS.

[4] = rat, 2 µM
Protocol: as §1

[5] = aqueous buffer
Protocol: as §1

[6] = human, plasma, 2 µM
Protocol: as §1

[7] = 1 % (w/v) pancreatin, pH 7.5, 37 °C, after 60 min

Row | Molecule | % of Baclofen Released (Pancreatin; [7]) [%] | % of Prodrug Remaining (Pancreatin; [7]) [%] | % of Baclofen Released ([1]; 1 h) [%] | % of Prodrug Remaining ([1]; 1 h) [%] | Ratio A-BB-A (Caco-2 cells) | % of Baclofen Released ([2]; s9, 1 h) [%] | % of Prodrug Remaining ([2]; s9, 1 h) [%] | % of Baclofen Released [3] | % of Prodrug Remaining [3] | % of Baclofen Released ([4]; s9, 1 h) [%] | % of Prodrug Remaining ([4]; s9, 1 h) [%] | % of Baclofen Released ([5]; 1 h, pH 2) [%] | % of Prodrug Remaining ([5]; 1 h, pH 2) [%] | % of Baclofen Released ([5]; 1 h, pH 7.4) [%] | % of Prodrug Remaining ([5]; 1 h, pH 7.4) [%] | % of Baclofen Released ([5]; 1 h, pH 8) [%] | % of Prodrug Remaining ([5]; 1 h, pH 8) [%] | % of Baclofen Released ([6]; 1 h) [%] | % of Prodrug Remaining ([6]; 1 h) [%] | further results
1 | CC(=O)OCOC(=O)NC[C@H](CC(=O)[O-])c1ccc(Cl)cc1.[Na+] [(10), Sodium 4-[(Acetoxymethoxy)carbonylamino]-(3R)-(4-chlorophenyl)-butanoate] | 21 | 75 | 15 | 85 | 1.2 | 80 | 1 | 96% | 2% | 78 | 0 | 1 | 100 | 3 | 101 | 9 | 98 | 26 | 64 | –
2 | CCCC(=O)OC(C)OC(=O)NC[C@H](CC(=O)[O-])c1ccc(Cl)cc1.[Na+] (stereo partly drawn) [(32), Sodium 4-[(1-Butanoyloxyethoxy)carbonylamino]-(3R)-(4-chlorophenyl)-butanoate] | – | – | – | – | 7.6 | – | – | – | – | – | – | – | – | – | – | – | – | – | – | –
3 | CC(OC(=O)NC[C@H](CC(=O)[O-])c1ccc(Cl)cc1)OC(=O)C(C)(C)C.[Na+] (stereo partly drawn) [(36), Sodium 4-[(1-Pivaloyrloxyethoxy)carbonylamino]-(3R)-(4-chlorophenyl)-butanoate] | – | – | – | – | 1.5 | – | – | – | – | – | – | – | – | – | – | – | – | – | – | –
4 | CCC(=O)OC(OC(=O)NC[C@H](CC(=O)[O-])c1ccc(Cl)cc1)C(C)C.[Na+] (stereo partly drawn) [(48), Sodium 4-[(1-Propanoyloxyisobutoxy)carbonylamino]-(3R)-(4-chlorophenyl)-butanoate] | – | – | – | – | 6.5 | – | – | – | – | – | – | – | – | – | – | – | – | – | – | –
5 | COc1ccc(C(=O)OCOC(=O)NC[C@H](CC(=O)[O-])c2ccc(Cl)cc2)cc1.[Na+] [(53), Sodium 4-[(4-Methoxybenzoyloxymethoxy)carbonylamino]-(3R)-(4-chlorophenyl)-butan oate] | – | – | – | – | 2.4 | – | – | – | – | – | – | – | – | – | – | – | – | – | – | –
6 | O=C([O-])C[C@@H](CNC(=O)OCOC(=O)c1cccs1)c1ccc(Cl)cc1.[Na+] [(57), Sodium 4-[(2-Thienylcarbonyloxymethoxy)carbonylamino]-(3R)-(4-chlorophenyl)-butan oate] | 75 | 12 | 10 | 82 | – | 86 | 1 | 104% | 2% | 78 | 2 | 0 | 100 | 0 | 100 | 0 | 100 | 14 | 73 | –
7 | CC(C)CC(=O)OCOC(=O)NC[C@H](CC(=O)[O-])c1ccc(Cl)cc1.[Na+] [(59), Sodium 4-[(3-Methylbutanoyloxymethoxy)carbonylamino]-(3R)-(4-chlorophenyl)-butano ate] | 50 | 46 | 85 | 2 | – | 82 | 1 | 104% | 3% | 85 | 2 | 0 | 103 | 1 | 103 | 2 | 97 | 11 | 77 | –
8 | CCCC(OC(=O)NC[C@H](CC(=O)[O-])c1ccc(Cl)cc1)OC(=O)c1ccccc1.[Na+] (stereo partly drawn) [(71), Sodium 4-[(1-Benzoyloxybutoxy)carbonylamino]-(3R)-(4-chlorophenyl)-butanoate] | – | – | – | – | 7.1 | – | – | – | – | – | – | – | – | – | – | – | – | – | – | –
9 | CCCC(OC(=O)NC[C@H](CC(=O)[O-])c1ccc(Cl)cc1)OC(=O)C(C)C.[Na+] (stereo partly drawn) [(72), Sodium 4-[(1-Isobutanoyloxybutoxy)carbonylamino]-(3R)-(4-chlorophenyl)-butanoate] | – | – | – | – | 3.5 | – | – | – | – | – | – | – | – | – | – | – | – | – | – | –
10 | CCCC(=O)OC(CCC)OC(=O)NC[C@H](CC(=O)[O-])c1ccc(Cl)cc1.[Na+] (stereo partly drawn) [(73), Sodium 4-[(1-Butanoyloxybutoxy)carbonylamino]-(3R)-(4-chlorophenyl)-butanoate] | – | – | – | – | 3.2 | – | – | – | – | – | – | – | – | – | – | – | – | – | – | –
11 | CCCC(OC(C)=O)OC(=O)NC[C@H](CC(=O)[O-])c1ccc(Cl)cc1.[Na+] (stereo partly drawn) [(74), Sodium 4-[(1-Acetoxybutoxy)carbonylamino]-(3R)-(4-chlorophenyl)-butanoate] | – | – | – | – | 11.2 | – | – | – | – | – | – | – | – | – | – | – | – | – | – | –
12 | CCCC(=O)OC(CC)OC(=O)NC[C@H](CC(=O)[O-])c1ccc(Cl)cc1.[Na+] (stereo partly drawn) [(78), Sodium 4-[(1-Butanoyloxypropoxy)carbonylamino]-(3R)-(4-chlorophenyl)-butanoate] | – | – | – | – | 7.9 | – | – | – | – | – | – | – | – | – | – | – | – | – | – | –
13 | CC(C)C(=O)OC(OC(=O)NC[C@H](CC(=O)[O-])c1ccc(Cl)cc1)C1CCCCC1.[Na+] (stereo partly drawn) [(84), Sodium 4-[(1-Isobutanoyloxy-1-cyclohexylmethoxy)carbonylamino]-(3R)-(4-chlorophenyl)-butanoate] | 40 | 47 | 11 | 91 | – | 82 | 2 | 76% | 13% | 91 | 4 | 0 | 85 | 0 | 84 | 1 | 94 | 4 | 89 | –
14 | CCCC(=O)OC(OC(=O)NC[C@H](CC(=O)[O-])c1ccc(Cl)cc1)C1CCCCC1.[Na+] (stereo partly drawn) [(85), Sodium 4-[(1-Butanoyloxy-1-cyclohexylmethoxy)carbonylamino]-(3R)-(4-chlorophenyl)-butanoate] | 64 | 15 | 12 | 82 | – | 84 | 2 | 82% | 4% | 91 | 2 | 0 | 82 | 0 | 92 | 0 | 93 | 4 | 95 | –
15 | CCC[C@H](OC(=O)NC[C@H](CC(=O)[O-])c1ccc(Cl)cc1)OC(=O)C(C)C.[Na+] [(91), Sodium 4-{[(1S)-Isobutanoyloxybutoxy]carbonylamino}-(3R)-(4-chlorophenyl)-butanoate] | 78 | 11 | 10 | 80 | – | 78 | 1 | 107% | 6% | 70 | 22 | 0 | 100 | 0 | 97 | 1 | 94 | 2 | 83 | –
16 | CC(C)C(=O)O[C@H](OC(=O)NC[C@H](CC(=O)[O-])c1ccc(Cl)cc1)C(C)C.[Na+] [(100), Sodium 4-{[(1R)-Isobutanoyloxyisobutoxy]carbonylamino}-(3R)-(4-chlorophenyl) -butanoate] | 27 | 68 | 64 | 9 | – | 83 | 1 | 90% | 7% | 85 | 3 | 0 | 101 | 0 | 98 | 0 | 95 | 3 | 89 | –
17 | Sodium 4-[(1-Benzoyloxgyethoxy)carbonylaminol-(3R)-(4-chlorophenyl)-butanoate [(40)] | – | – | – | – | – | – | – | 15/85% | 15/85% | – | – | – | – | – | – | – | – | – | – | % of Baclofen Released (Pancreatin; pig, pancreatin, 1 h, pH 7.5): 43/58%; % of Prodrug Remaining (Pancreatin; pig, pancreatin, 1 h, pH 7.5): 43/58%; % of Baclofen Released ([1]; 60 min): 72/17%; % of Prodrug Remaining ([1]; 60 min): 72/17%; % of Baclofen Released ([2]; s9, 60 min): 1/105%; % of Prodrug Remaining ([2]; s9, 60 min): 1/105%; % of Baclofen Released ([4]; s9, 60 min): 8/96%; % of Prodrug Remaining ([4]; s9, 60 min): 8/96%; % of Baclofen Released ([5]; pH 2, 60 min): 103/0%; % of Prodrug Remaining ([5]; pH 2, 60 min): 103/0%; % of Baclofen Released ([5]; pH 7.4, 60 min): 100/0%; % of Prodrug Remaining ([5]; pH 7.4, 60 min): 100/0%; % of Baclofen Released ([5]; pH 8, 60 min): 107/2%; % of Prodrug Remaining ([5]; pH 8, 60 min): 107/2%; % of Baclofen Released ([6]; 60 min): 101/2%; % of Prodrug Remaining ([6]; 60 min): 101/2%
